Laboratory results published in US9393221B2, “Methods and compounds for reducing intracellular lipid storage” (THE GENERAL HOSPITAL CORPORATION, priority 2011, dated 2016).
Structures can show the parent of a compound that is named as a salt.

Tested on: ATGL-KO iPSCs
Test: High throughput iPSC chemical screening, Oil Red O (ORO) lipid accumulation; note: test concentration or dose not given here
Format: cell-based, mouse
Conditions: normalized ORO level vs DMSO-treated cells; compound present during 7 days differentiation, 96-well; negative = decrease in lipid accumulation

Question: Which Z-score does the source give for `COc1c2occc2c(OC)c2c(=O)cc(C)oc12` [Khellin] here?
Answer: Its Z-score is −0.1533.

Question: For `Cl.OC1CCCCC1N1CCC(c2ccccc2)CC1` (stereo not drawn) [L(−)-vesamicol hydrochloride], which Z-score is on record?
Answer: Its Z-score is −1.6146.

Question: `CC(CCc1ccccc1)NCC(O)c1ccc(O)c(C(N)=O)c1` (centres unmarked) [Labetalol hydrochloride] was tested. Which Z-score did it give?
Answer: The Z-score was −1.5017.

Question: Which Z-score does the source give for `O=C(O)[C@H](O)[C@@H](O)[C@H](O[C@@H]1O[C@H](CO)[C@H](O)[C@H](O)[C@H]1O)[C@H](O)CO` [Lactobionic acid] here?
Answer: Its Z-score is −0.5092.

Question: For `CC(=O)O[C@H]1C[C@H](O[C@H]2[C@@H](O)C[C@H](O[C@H]3[C@@H](O)C[C@H](O[C@H]4CC[C@@]5(C)[C@H](CC[C@@H]6[C@@H]5C[C@@H](O)[C@]5(C)[C@@H](C7=CC(=O)OC7)CC[C@]65O)C4)O[C@@H]3C)O[C@@H]2C)O[C@H](C)[C@H]1O[C@@H]1O[C@H](CO)[C@@H](O)[C@H](O)[C@H]1O` [Lanatoside C], which Z-score is on record?
Answer: The Z-score was −1.0291.

Question: `Cc1c(OCC(F)(F)F)ccnc1C[S+]([O-])c1nc2ccccc2[nH]1` (centres unmarked) [Lansoprazole] was tested. Which Z-score did it give?
Answer: The Z-score was −0.4696.

Question: `CC[C@@H](C(=O)[C@@H](C)[C@@H](O)[C@H](C)CCc1ccc(C)c(O)c1C(=O)O)[C@H]1O[C@](CC)([C@H]2CC[C@](O)(CC)[C@H](C)O2)C[C@@H]1C` [Lasalocid sodium salt] was tested. Which Z-score did it give?
Answer: Its Z-score is 9.898.

Question: How did the Z-score turn out when `Cc1oncc1C(=O)Nc1ccc(C(F)(F)F)cc1` [Leflunomide] was run?
Answer: The Z-score was 1.258.

Question: With `N#Cc1ccc(C(c2ccc(C#N)cc2)n2cncn2)cc1` [Letrozole] as the molecule, how does the Z-score read?
Answer: Its Z-score is 0.6693.

Question: `CC1=CC(=O)C2=C(C)CC[C@@H]3[C@H](OC(=O)[C@H]3C)[C@@H]12` [Leucomisine] was tested. Which Z-score did it give?
Answer: The Z-score was −0.2458.

Question: Which Z-score does the source give for `c1ccc([C@H]2CN3CCSC3=N2)cc1` [Levamisole hydrochloride] here?
Answer: The Z-score was −0.8539.

Question: With `C[C@@H]1CN([C@H]2CC[C@](C#N)(c3ccc(F)cc3)CC2)CC[C@]1(C(=O)O)c1ccccc1` [Levocabastine hydrochloride] as the molecule, how does the Z-score read?
Answer: Its Z-score is 1.078.

Question: For `N[C@@H](Cc1ccc(O)c(O)c1)C(=O)O` [Levodopa], which Z-score is on record?
Answer: The Z-score was −0.1655.

Question: With `C[C@H](N)[C@H](O)c1ccc(O)c(O)c1` [Levonordefrin] as the molecule, how does the Z-score read?
Answer: The Z-score was −0.1555.

Question: Which Z-score does the source give for `CCC(=O)O[C@@](Cc1ccccc1)(c1ccccc1)[C@@H](C)CN(C)C` [Levopropoxyphene napsylate] here?
Answer: Its Z-score is −1.0896.

Question: For `CCN(CC)CC(=O)Nc1c(C)cccc1C.Cl` [LidocaOne hydrochloride], which Z-score is on record?
Answer: The Z-score was −0.9429.

Question: `Cc1cccc(C)c1NC(=O)CN1CCN(CCCC(c2ccc(F)cc2)c2ccc(F)cc2)CC1` [Lidoflazine] was tested. Which Z-score did it give?
Answer: Its Z-score is 1.42.

Question: Which Z-score does the source give for `CCC[C@@H]1C[C@@H](C(=O)N[C@@H]([C@H]2O[C@H](SC)[C@H](O)[C@@H](O)[C@H]2O)[C@@H](C)O)N(C)C1` [Lincomycin hydrochloride] here?
Answer: The Z-score was 0.696.

Question: For `N[C@@H](Cc1cc(I)c(Oc2ccc(O)c(I)c2)c(I)c1)C(=O)O` [Liothyronine], which Z-score is on record?
Answer: Its Z-score is 0.1954.

Question: Which Z-score does the source give for `NCCCC[C@H](N[C@@H](CCc1ccccc1)C(=O)O)C(=O)N1CCC[C@H]1C(=O)O` [Lisinopril] here?
Answer: Its Z-score is 0.5403.

Question: For `CCN(CC)C(=O)N[C@H]1C=C2c3cccc4[nH]cc(c34)C[C@H]2N(C)C1` [Lisuride (S)(−)], which Z-score is on record?
Answer: Its Z-score is −0.7927.

Question: For `C[C@H](CCC(=O)O)[C@H]1CC[C@H]2[C@@H]3CC[C@@H]4C[C@H](O)CC[C@]4(C)[C@H]3CC[C@]12C` [Lithocholic acid], which Z-score is on record?
Answer: Its Z-score is 0.8022.

Question: `CN1[C@@H](C[C@@H](O)c2ccccc2)CCC[C@H]1C[C@H](O)c1ccccc1.Cl` [Lobelanidine hydrochloride] was tested. Which Z-score did it give?
Answer: The Z-score was −0.6306.

Question: `CN1[C@@H](CC(=O)c2ccccc2)CCC[C@H]1C[C@H](O)c1ccccc1.Cl` [Lobeline alpha (−) hydrochoride] was tested. Which Z-score did it give?
Answer: The Z-score was −0.5438.

Question: With `CCn1cc(C(=O)O)c(=O)c2cc(F)c(N3CCNC(C)C3)c(F)c21` (centres unmarked) [Lomefloxacin hydrochloride] as the molecule, how does the Z-score read?
Answer: Its Z-score is 0.00477.

Question: `CN(C)C(=O)C(CCN1CCC(O)(c2ccc(Cl)cc2)CC1)(c1ccccc1)c1ccccc1` [Loperamide hydrochloride] was tested. Which Z-score did it give?
Answer: The Z-score was −0.1814.

Question: How did the Z-score turn out when `N[C@@H](C(=O)N[C@@H]1C(=O)N2C(C(=O)O)=C(Cl)CC[C@H]12)c1ccccc1` [Loracarbef] was run?
Answer: Its Z-score is 0.6457.

Question: With `CCCCCN(CCCCC)C(=O)C(CCC(=O)O)NC(=O)c1ccc(Cl)c(Cl)c1` (centres unmarked) [Lorglumide sodium salt] as the molecule, how does the Z-score read?
Answer: Its Z-score is −1.7664.

Question: For `CC[C@H](C)C(=O)O[C@H]1C[C@@H](C)C=C2C=C[C@H](C)[C@H](CC[C@@H]3C[C@@H](O)CC(=O)O3)[C@H]21` [Lovastatin], which Z-score is on record?
Answer: Its Z-score is 6.935.

Question: Which Z-score does the source give for `CN1CCN(C2=Nc3ccccc3Oc3ccc(Cl)cc32)CC1` [Loxapine succinate] here?
Answer: Its Z-score is −0.6976.

Question: For `COC1=C[C@@H]2C3=C([C@@H]2C1=O)[C@@H](NC(C)=O)CCc1cc(OC)c(OC)c(OC)c13` [Lumicolchicine gamma], which Z-score is on record?
Answer: The Z-score was 0.6596.

Question: Which Z-score does the source give for `O=c1cc(-c2ccc(O)c(O)c2)oc2cc(O)cc(O)c12` [Luteolin] here?
Answer: Its Z-score is −1.0098.

Question: `CN(C)[C@@H]1C(O)=C(C(=O)NCNCCCC[C@H](N)C(=O)O)C(=O)[C@@]2(O)C(O)=C3C(=O)c4c(O)cccc4[C@@](C)(O)[C@H]3C[C@@H]12` [Lymecycline] was tested. Which Z-score did it give?
Answer: Its Z-score is −1.3365.

Question: Which Z-score does the source give for `C#C[C@]1(O)CC[C@H]2[C@@H]3CCC4=CCCC[C@@H]4[C@H]3CC[C@@]21C` [Lynestrenol] here?
Answer: The Z-score was −1.3181.

Question: With `CN1C[C@H](CO)C=C2c3cccc4[nH]cc(c34)C[C@H]21` [Lysergol] as the molecule, how does the Z-score read?
Answer: The Z-score was −0.3809.

Question: Which Z-score does the source give for `NCc1ccc(S(N)(=O)=O)cc1` [Mafenide hydrochloride] here?
Answer: The Z-score was 0.8468.

Question: With `CNCCCC12CCC(c3ccccc31)c1ccccc12` [Maprotiline hydrochloride] as the molecule, how does the Z-score read?
Answer: The Z-score was 0.03741.

Question: Which Z-score does the source give for `COC(=O)Nc1nc2ccc(C(=O)c3ccccc3)cc2[nH]1` [Mebendazole] here?
Answer: The Z-score was 49.935.

Question: For `CCN(CCCCOC(=O)c1ccc(OC)c(OC)c1)C(C)Cc1ccc(OC)cc1` (centres unmarked) [Mebeverine hydrochloride], which Z-score is on record?
Answer: Its Z-score is 0.1096.

Question: Which Z-score does the source give for `CN1CCc2c(c3ccccc3n2Cc2ccccc2)C1.O=S(=O)(O)c1cccc2c(S(=O)(=O)O)cccc12` [Mebhydroline 1,5-naphtalenedisulfonate] here?
Answer: Its Z-score is 0.4999.

Question: With `CNC1(C)C2CCC(C2)C1(C)C` (centres unmarked) [Mecamylamine hydrochloride] as the molecule, how does the Z-score read?
Answer: Its Z-score is 2.563.

Question: For `C=C1c2c(Cl)ccc(O)c2C(=O)C2=C(O)[C@]3(O)C(=O)C(C(N)=O)=C(O)[C@@H](N(C)C)[C@@H]3[C@@H](O)[C@H]12.O=C(O)c1cc(S(=O)(=O)O)ccc1O` [Meclocycline sulfosalicylate], which Z-score is on record?
Answer: Its Z-score is 8.326.

Question: With `CN(C)CCOC(=O)COc1ccc(Cl)cc1` [Meclofenoxate hydrochloride] as the molecule, how does the Z-score read?
Answer: Its Z-score is 0.4945.

Question: How did the Z-score turn out when `Cc1cccc(CN2CCN(C(c3ccccc3)c3ccc(Cl)cc3)CC2)c1` (centres unmarked) [Meclozine dihydrochloride] was run?
Answer: The Z-score was 1.227.

Question: For `CC(=O)[C@H]1CC[C@H]2[C@@H]3C[C@H](C)C4=CC(=O)CC[C@]4(C)[C@H]3[C@@H](O)C[C@]12C` [Medrysone], which Z-score is on record?
Answer: The Z-score was −0.1611.

Question: How did the Z-score turn out when `Cc1cccc(Nc2ccccc2C(=O)O)c1C` [Mefenamic acid] was run?
Answer: The Z-score was −0.2407.

Question: For `CCN(CC)CCNC(=O)COc1ccc(OC)cc1` [Mefexamide hydrochloride], which Z-score is on record?
Answer: The Z-score was −0.2169.

Question: For `CC(=O)O[C@]1(C(C)=O)CC[C@H]2[C@@H]3C=C(C)C4=CC(=O)CC[C@]4(C)[C@H]3CC[C@@]21C` [Megestrol acetate], which Z-score is on record?
Answer: The Z-score was 1.362.

Question: Which Z-score does the source give for `CNC[C@H](O)[C@@H](O)[C@H](O)[C@H](O)CO` [Meglumine] here?
Answer: Its Z-score is −1.1536.

Question: With `COc1ccc2[nH]cc(CCNC(C)=O)c2c1` [Melatonin] as the molecule, how does the Z-score read?
Answer: Its Z-score is 0.08162.
